Assay results as given in the NIST ThermoML archive (doi:10.1016/j.fluid.2017.03.021).

Experiments:
[1] = 101.33 kPa, Liquid; for speed of sound: Sing-around technique in a fixed-path interferometer; for mass density: Vibrating tube method; for viscosity: Falling or rolling sphere viscometry
[2] = molar heat capacity at constant pressure; conditions: 101.33 kPa, Liquid, DSC

CCCCn1cc[n+](C(CC)CC)c1.O=S(=O)([N-]S(=O)(=O)C(F)(F)F)C(F)(F)F
Conditions	mass density, [1] [kg/m3]	molar heat capacity at constant pressure, [2] [J/K/mol]	speed of sound, [1] [m/s]	viscosity, [1] [mPa·s]
287.15 K	1329.4	–	1238.8	–
289.15 K	1327.6	–	1233.8	–
291.15 K	1325.8	–	1228.9	–
293.15 K	1324	–	1224.1	159.5
294.15 K	–	692.9	–	148.8
295.15 K	1322.2	694.28	1219.3	–
296.15 K	–	695.14	–	–
297.15 K	1320.4	695.85	1214.5	–
298.15 K	–	696.61	–	118.2
299.15 K	1318.6	697.52	1209.8	–
300.15 K	–	698.18	–	–
301.15 K	1316.8	698.85	1205.1	–
302.15 K	–	699.65	–	–
303.15 K	1315	700.37	1200.4	89.55
304.15 K	–	701.22	–	–
305.15 K	1313.2	701.89	1195.8	–
306.15 K	–	702.56	–	–
307.15 K	1311.5	703.46	1191.2	–
308.15 K	–	704.22	–	–
309.15 K	1309.7	704.93	1186.7	–
310.15 K	–	705.84	–	–
311.15 K	1307.9	706.6	1182.1	–
312.15 K	–	707.21	–	–
313.15 K	1306.2	707.88	1177.6	54.83
314.15 K	–	708.69	–	–
315.15 K	1304.4	709.45	1173.1	–
316.15 K	–	710.35	–	–
317.15 K	1302.6	711.16	1168.6	–
318.15 K	–	711.87	–	–
319.15 K	1300.9	712.97	1164.2	–
320.15 K	–	713.78	–	–
321.15 K	1299.1	714.58	1159.8	–
322.15 K	–	715.35	–	–
323.15 K	1297.4	716.3	1155.4	35.98
324.15 K	–	717.1	–	–
325.15 K	1295.7	718.2	1151	–
326.15 K	–	718.67	–	–
327.15 K	1293.9	719.58	1146.6	–
328.15 K	–	720.2	–	–
329.15 K	1292.2	721.15	1142.3	–
330.15 K	–	721.72	–	–
331.15 K	1290.5	722.48	1137.9	–
332.15 K	–	723.24	–	–
333.15 K	1288.7	723.9	1133.6	25.07
334.15 K	–	724.81	–	–
335.15 K	1287	725.43	1129.3	–
336.15 K	–	726.23	–	–
337.15 K	1285.3	726.9	1125	–
338.15 K	–	727.47	–	–
339.15 K	1283.6	728.09	1120.8	–
340.15 K	–	729.04	–	–
341.15 K	1281.8	729.42	1116.6	–
342.15 K	–	730.13	–	–
343.15 K	1280.1	731.13	1112.4	18.26
344.15 K	–	731.94	–	–
345.15 K	–	732.61	–	–
346.15 K	–	733.37	–	–
347.15 K	–	733.89	–	–
348.15 K	–	734.79	–	–
353.15 K	–	–	–	13.84

CCCC[n+]1ccn(C2CCCC2)c1.O=S(=O)([N-]S(=O)(=O)C(F)(F)F)C(F)(F)F
Conditions	mass density, [1] [kg/m3]	molar heat capacity at constant pressure, [2] [J/K/mol]	speed of sound, [1] [m/s]
287.15 K	1384.9	–	1298.1
289.15 K	1383.1	–	1293.1
291.15 K	1381.2	–	1288.1
293.15 K	1379.4	648.54	1283.2
294.15 K	–	649.39	–
295.15 K	1377.5	650.01	1278.3
296.15 K	–	650.62	–
297.15 K	1375.7	651.28	1273.4
298.15 K	–	651.99	–
299.15 K	1373.8	652.8	1268.6
300.15 K	–	653.46	–
301.15 K	1372	654.08	1263.8
302.15 K	–	654.84	–
303.15 K	1370.2	655.4	1259
304.15 K	–	656.21	–
305.15 K	1368.4	657.01	1254.2
306.15 K	–	657.63	–
307.15 K	1366.5	658.43	1249.4
308.15 K	–	659.14	–
309.15 K	1364.7	659.9	1244.7
310.15 K	–	660.66	–
311.15 K	1362.9	661.42	1240
312.15 K	–	662.22	–
313.15 K	1361.1	663.07	1235.3
314.15 K	–	663.88	–
315.15 K	1359.3	664.73	1230.6
316.15 K	–	665.35	–
317.15 K	1357.5	666.15	1226
318.15 K	–	666.77	–
319.15 K	1355.7	667.43	1221.4
320.15 K	–	668.19	–
321.15 K	1353.9	668.94	1216.7
322.15 K	–	669.75	–
323.15 K	1352.1	670.51	1212.1
324.15 K	–	671.26	–
325.15 K	1350.3	672.02	1207.6
326.15 K	–	672.78	–
327.15 K	1348.5	673.49	1203
328.15 K	–	674.44	–
329.15 K	1346.7	675.15	1198.5
330.15 K	–	675.95	–
331.15 K	1344.9	676.8	1193.9
332.15 K	–	677.56	–
333.15 K	1343.1	678.41	1189.4
334.15 K	–	679.22	–
335.15 K	1341.3	680.21	1185
336.15 K	–	680.88	–
337.15 K	1339.6	681.63	1180.5
338.15 K	–	682.34	–
339.15 K	1337.8	683.01	1176.1
340.15 K	–	683.91	–
341.15 K	1336	684.76	1171.7
342.15 K	–	685.47	–
343.15 K	1334.3	686.27	1167.3
344.15 K	–	686.94	–
345.15 K	–	687.65	–
346.15 K	–	688.45	–
347.15 K	–	689.07	–
348.15 K	–	690.11	–
